Data from US11612661B2 (priority 2019, dated 2023).
Bridge positions count the residues as written; N and C are the ends. Square brackets hold non-standard residues; d marks the D form. Triazole bridges read from a SMILES are 1,4-linked. Peptide text beside a SMILES is read from it. Tyr(3-I) = N[C@@H](Cc1ccc(O)c(I)c1)C(=O)O; Orn(N3) = [N-]=[N+]=NCCC[C@H](N)C(=O)O; NMeY = CN[C@@H](Cc1ccc(O)cc1)C(=O)O; Aha = [N-]=[N+]=NCC[C@H](N)C(=O)O; NMeR = CN[C@@H](CCCNC(=N)N)C(=O)O; Cit = NC(=O)NCCC[C@H](N)C(=O)O; Hpra = C#CCC[C@H](N)C(=O)O; Pra = C#CC[C@H](N)C(=O)O

What was measured:
human α9α10 nAChR = human α9α10 nAChR (Homo sapiens, UniProt Q9GZZ6+Q9UGM1); assay: cell-based; format: cell-based
human α9α10 nAChR, sequence (Q9UGM1 26-479 limits assumed): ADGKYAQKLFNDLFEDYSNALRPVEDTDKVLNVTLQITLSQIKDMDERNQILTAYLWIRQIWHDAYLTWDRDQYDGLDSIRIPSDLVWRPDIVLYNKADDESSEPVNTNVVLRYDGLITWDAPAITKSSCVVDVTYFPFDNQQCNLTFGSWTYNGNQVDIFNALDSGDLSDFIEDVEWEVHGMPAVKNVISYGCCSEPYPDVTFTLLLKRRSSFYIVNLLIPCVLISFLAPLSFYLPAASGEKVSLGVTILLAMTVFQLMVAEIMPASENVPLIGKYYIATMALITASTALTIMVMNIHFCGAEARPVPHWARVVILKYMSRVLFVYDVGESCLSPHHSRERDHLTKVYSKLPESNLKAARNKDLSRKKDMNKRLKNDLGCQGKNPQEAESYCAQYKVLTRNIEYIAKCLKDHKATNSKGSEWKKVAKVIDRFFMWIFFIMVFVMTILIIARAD
human α9α10 nAChR, sequence (Q9GZZ6 25-450 limits assumed): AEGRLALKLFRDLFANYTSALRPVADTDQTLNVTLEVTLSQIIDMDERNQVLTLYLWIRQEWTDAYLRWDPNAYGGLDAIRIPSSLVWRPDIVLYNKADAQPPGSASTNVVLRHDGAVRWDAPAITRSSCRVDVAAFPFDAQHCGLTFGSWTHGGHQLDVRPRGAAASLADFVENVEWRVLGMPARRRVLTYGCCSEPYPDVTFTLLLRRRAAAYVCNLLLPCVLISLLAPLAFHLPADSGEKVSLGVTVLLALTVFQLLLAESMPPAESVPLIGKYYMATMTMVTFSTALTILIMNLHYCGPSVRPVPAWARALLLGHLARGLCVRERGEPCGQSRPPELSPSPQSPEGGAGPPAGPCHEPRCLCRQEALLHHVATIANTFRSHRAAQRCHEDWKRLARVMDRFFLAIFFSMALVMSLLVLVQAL

rat α9α10 nAChR = rat α9α10 nAChR (Rattus norvegicus, UniProt P43144+Q9JLB5); assay: cell-based; format: cell-based; conditions: α9α10 nAChR IC50 (nM) Rat
rat α9α10 nAChR, sequence (P43144 26-479 limits assumed): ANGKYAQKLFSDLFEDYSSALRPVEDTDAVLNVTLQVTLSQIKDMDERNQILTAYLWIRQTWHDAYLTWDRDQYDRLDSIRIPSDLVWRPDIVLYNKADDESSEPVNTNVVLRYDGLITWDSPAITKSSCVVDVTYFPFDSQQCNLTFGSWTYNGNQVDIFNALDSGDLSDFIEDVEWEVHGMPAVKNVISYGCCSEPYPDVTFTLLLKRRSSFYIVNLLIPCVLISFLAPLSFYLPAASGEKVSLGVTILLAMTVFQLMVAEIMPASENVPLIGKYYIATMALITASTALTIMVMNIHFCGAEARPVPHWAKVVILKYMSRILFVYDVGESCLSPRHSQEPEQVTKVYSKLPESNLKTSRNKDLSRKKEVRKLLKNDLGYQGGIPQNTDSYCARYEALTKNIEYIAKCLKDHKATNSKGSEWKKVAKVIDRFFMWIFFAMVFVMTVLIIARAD
rat α9α10 nAChR, sequence (Q9JLB5 25-447 limits assumed): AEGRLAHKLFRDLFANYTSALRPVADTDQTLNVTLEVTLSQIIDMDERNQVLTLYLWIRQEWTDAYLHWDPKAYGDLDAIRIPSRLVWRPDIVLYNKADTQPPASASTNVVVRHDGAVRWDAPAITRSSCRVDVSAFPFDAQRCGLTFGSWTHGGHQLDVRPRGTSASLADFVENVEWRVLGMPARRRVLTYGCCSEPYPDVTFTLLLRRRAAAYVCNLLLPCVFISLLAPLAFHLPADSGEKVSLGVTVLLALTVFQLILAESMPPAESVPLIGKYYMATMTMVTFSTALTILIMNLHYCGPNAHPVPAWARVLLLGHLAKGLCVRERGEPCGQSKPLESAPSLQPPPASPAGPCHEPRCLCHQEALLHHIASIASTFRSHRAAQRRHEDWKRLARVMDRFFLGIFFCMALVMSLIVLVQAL

Compound | IC50 (human α9α10 nAChR) | IC50 (rat α9α10 nAChR)
C[C@@H](O)[C@@H]1NC(=O)[C@@H]2CCCc3cn(nn3)C[C@@H](C(=O)N[C@@H](Cc3ccc(O)cc3)C(=O)O)NC(=O)[C@H](CCC(N)=O)NC(=O)[C@H](Cc3c[nH]c4ccccc34)NC(=O)[C@H](CCCNC(N)=O)NC(=O)[C@H](CSSC[C@H](NC(=O)CN)C(=O)N2)NC(=O)[C@H](CCCNC(=N)N)NC(=O)[C@@H]2CCCN2C(=O)[C@H](CC(=O)O)NC1=O [Ij, L-tyrosine, glycyl-L-cysteinyl-(2S)-2-aminopentanoyl-L-alanyl-L-threonyl-L-α-aspartyl-L-prolyl-L-arginyl-L-cysteinyl-N5-(aminocarbonyl)-L-ornithyl-L-3-iodotyrosyl-L-glutaminyl-L-alanyl-cyclic (2→8)-disulfide-cyclic 3^5,12^3-(1H-1,2,3-triazole-4,1-diyl)] | 152 ± 71 nM | 69 ± 8.5 nM
C[C@@H](O)[C@@H]1NC(=O)[C@@H]2Cc3cn(nn3)CCC[C@@H](C(=O)N(C)[C@@H](Cc3ccc(O)cc3)C(=O)O)NC(=O)[C@H](CCC(N)=O)NC(=O)[C@H](Cc3c[nH]c4ccccc34)NC(=O)[C@H](CCCNC(N)=O)NC(=O)[C@H](CSSC[C@H](NC(=O)CN)C(=O)N2)NC(=O)[C@H](CCCNC(=N)N)NC(=O)[C@@H]2CCCN2C(=O)[C@H](CC(=O)O)NC1=O [Ir, L-tyrosine, glycyl-L-cysteinyl-L-alanyl-L-threonyl-L-α-aspartyl-L-prolyl-L-arginyl-L-cysteinyl-N5-(aminocarbonyl)-L-ornithyl-L-tryptophyl-L-glutaminyl-L-norvalyl-N-methyl-cyclic (2→8)-disulfide-cyclic 3^3,12^5-(1H-1,2,3-triazole-4,1-diyl)] (H-GC[Pra]TDPRC[Cit]WQ[Orn(N3)][NMeY]-OH; disulfide 2-8; triazole 3-12) | ~100 nM | 31 ± 0.7 nM
C[C@@H](O)[C@@H]1NC(=O)[C@@H]2Cc3cn(nn3)CCC[C@@H](C(=O)N[C@@H](Cc3ccccc3)C(=O)O)NC(=O)[C@H](CCC(N)=O)NC(=O)[C@H](Cc3c[nH]c4ccccc34)NC(=O)[C@H](CCCNC(N)=O)NC(=O)[C@H](CSSC[C@H](NC(=O)CN)C(=O)N2)NC(=O)[C@H](CCCNC(=N)N)NC(=O)[C@@H]2CCCN2C(=O)[C@H](CC(=O)O)NC1=O [Il, L-phenylalanine, glycyl-L-cysteinyl-L-alanyl-L-threonyl-L-α-aspartyl-L-prolyl-L-arginyl-L-cysteinyl-N5-(aminocarbonyl)-L-ornithyl-L-tryptophyl-L-glutaminyl-L-norvalyl-cyclic (2→8)-disulfide-cyclic 3^3,12^5-(1H-1,2,3-triazole-4,1-diyl)] (H-GC[Pra]TDPRC[Cit]WQ[Orn(N3)]F-OH; disulfide 2-8; triazole 3-12) | 11 ± 1.4 nM | 
C[C@@H](O)[C@@H]1NC(=O)[C@@H]2Cc3cn(nn3)CCC[C@@H](C(=O)N(C)[C@@H](CCCNC(=N)N)C(=O)O)NC(=O)[C@H](CCC(N)=O)NC(=O)[C@H](Cc3c[nH]c4ccccc34)NC(=O)[C@H](CCCNC(N)=O)NC(=O)[C@H](CSSC[C@H](NC(=O)CN)C(=O)N2)NC(=O)[C@H](CCCNC(=N)N)NC(=O)[C@@H]2CCCN2C(=O)[C@H](CC(=O)O)NC1=O [Iv, L-arginine, glycyl-L-cysteinyl-L-alanyl-L-threonyl-L-α-aspartyl-L-prolyl-L-arginyl-L-cysteinyl-N5-(aminocarbonyl)-L-ornithyl-L-tryptophyl-L-glutaminyl-L-norvalyl-N-methyl-cyclic (2→8)-disulfide-cyclic 3^3,12^5-(1H-1,2,3-triazole-4,1-diyl)] (H-GC[Pra]TDPRC[Cit]WQ[Orn(N3)][NMeR]-OH; disulfide 2-8; triazole 3-12) | ~100 nM | < 30 nM
C[C@@H](O)[C@@H]1NC(=O)[C@@H]2CCn3cc(nn3)CC[C@@H](C(=O)N[C@@H](Cc3ccc(O)cc3)C(=O)O)NC(=O)[C@H](CCC(N)=O)NC(=O)[C@H](Cc3c[nH]c4ccccc34)NC(=O)[C@H](CCCNC(N)=O)NC(=O)[C@H](CSSC[C@H](NC(=O)CN)C(=O)N2)NC(=O)[C@H](CCCNC(=N)N)NC(=O)[C@@H]2CCCN2C(=O)[C@H](CC(=O)O)NC1=O [Ii, L-tyrosine, glycyl-L-cysteinyl-(2S)-2-aminobutanoyl-L-threonyl-L-α-aspartyl-L-prolyl-L-arginyl-L-cysteinyl-N5-(aminocarbonyl)-L-ornithyl-L-tryptophyl-L-glutaminyl-L-(2S)-2-aminobutanoyl-cyclic (2→8)-disulfide-cyclic 3^4,12^4-(1H-1,2,3-triazole-1,4-diyl)] (H-GC[Aha]TDPRC[Cit]WQ[Hpra]Y-OH; disulfide 2-8; triazole 3-12) | 3.4 ± 1.4 nM | 1.6 ± 0.6 nM
C[C@@H](O)[C@@H]1NC(=O)[C@@H]2CCCn3cc(nn3)C[C@@H](C(=O)N[C@@H](Cc3ccc(O)cc3)C(N)=O)NC(=O)[C@H](CCC(N)=O)NC(=O)[C@H](Cc3ccc(O)c(I)c3)NC(=O)[C@H](CCCNC(N)=O)NC(=O)[C@H](CSSC[C@H](NC(=O)CN)C(=O)N2)NC(=O)[C@H](CCCNC(=N)N)NC(=O)[C@@H]2CCCN2C(=O)[C@H](CC(=O)O)NC1=O [Ie, L-tyrosinamide, glycyl-L-cysteinyl-L-norvalyl-L-threonyl-L-α-aspartyl-L-prolyl-L-arginyl-L-cysteinyl-N5-(aminocarbonyl)-L-ornithyl-L-3-iodotyrosyl-L-glutaminyl-L-alanyl-cyclic (2→8)-disulfide-cyclic 3^5,12^3-(1H-1,2,3-triazole-1,4-diyl)] (H-GC[Orn(N3)]TDPRC[Cit][Tyr(3-I)]Q[Pra]Y-NH2; disulfide 2-8; triazole 3-12) | 115 ± 56 nM | 6.6 ± 1.7 nM
C[C@@H](O)[C@@H]1NC(=O)[C@@H]2Cc3cn(nn3)CCC[C@@H](C(=O)N[C@H](CCCNC(=N)N)C(=O)O)NC(=O)[C@H](CCC(N)=O)NC(=O)[C@H](Cc3c[nH]c4ccccc34)NC(=O)[C@H](CCCNC(N)=O)NC(=O)[C@H](CSSC[C@H](NC(=O)CN)C(=O)N2)NC(=O)[C@H](CCCNC(=N)N)NC(=O)[C@@H]2CCCN2C(=O)[C@H](CC(=O)O)NC1=O [Is, D-arginine, glycyl-L-cysteinyl-L-alanyl-L-threonyl-L-α-aspartyl-L-prolyl-L-arginyl-L-cysteinyl-N5-(aminocarbonyl)-L-ornithyl-L-tryptophyl-L-glutaminyl-L-norvalyl-cyclic (2→8)-disulfide-cyclic 3^3,12^5-(1H-1,2,3-triazole-4,1-diyl)] (H-GC[Pra]TDPRC[Cit]WQ[Orn(N3)][dR]-OH; disulfide 2-8; triazole 3-12) | 59 nM | 
C[C@@H](O)[C@@H]1NC(=O)[C@@H]2Cc3cn(nn3)CCC[C@@H](C(=O)N[C@H](Cc3ccc(O)cc3)C(=O)O)NC(=O)[C@H](CCC(N)=O)NC(=O)[C@H](Cc3c[nH]c4ccccc34)NC(=O)[C@H](CCCNC(N)=O)NC(=O)[C@H](CSSC[C@H](NC(=O)CN)C(=O)N2)NC(=O)[C@H](CCCNC(=N)N)NC(=O)[C@@H]2CCCN2C(=O)[C@H](CC(=O)O)NC1=O [Im, D-tyrosine, glycyl-L-cysteinyl-L-alanyl-L-threonyl-L-α-aspartyl-L-prolyl-L-arginyl-L-cysteinyl-N5-(aminocarbonyl)-L-ornithyl-L-tryptophyl-L-glutaminyl-L-norvalyl-cyclic (2→8)-disulfide-cyclic 3^3,12^5-(1H-1,2,3-triazole-4,1-diyl)] (H-GC[Pra]TDPRC[Cit]WQ[Orn(N3)][dY]-OH; disulfide 2-8; triazole 3-12) | 50 ± 1.2 nM | 
